Measured values from US20070037799A1, “Fungicide ternary active ingredient combinations” (Bayer Cropscience Aktiengesellschaft, priority 2003, published 2007).

The molecules below were run on Erysiphe graminis f. sp. Tritici (assay: Erysiphe test (wheat)/curative). Settings: curative, sprayed 48 hours after inoculation, application rate 50 g/ha of each active compound, evaluation 8 days after inoculation, 0% = control, 100% = no infection.
Assay type: in vivo, Erysiphe graminis f. sp. Tritici on wheat
Description: The efficacy here is determined in %. 0% denotes an efficacy which corresponds to that of the control, while an efficacy of 100% means that no infection is observed.
To produce a suitable preparation of active compound, 1 part by weight of active compound or active compound combination is mixed with the stated amounts of solvent and emulsifier, and the concentrate is diluted with water to the desired concentration.
To test for curative activity, young plants are dusted with spores of Erysiphe graminis f. sp. Tritici. 48 hours after the inoculation, the plants are sprayed with the preparation of active compound at the stated application rate.
The plants are placed in a greenhouse at a temperature of about 20° C. and a relative atmospheric humidity of about 80% to promote the development of mildew pustules.
Evaluation is carried out 8 days after the inoculation. 0% means an efficacy which corresponds to that of the control, whereas an efficacy of 100% means that no infection is observed.

Structure (SMILES) | Efficacy in % found (activity found) [%]
CON=C(C1=NOCCO1)c1ccccc1Oc1ncnc(Oc2ccccc2Cl)c1F [(I) fluoxastrobin, 3-[1-[2-(4-<2-chlorophenoxy>-5-fluoropyrimid-6-yloxy)phenyl]-1-(methoximino)methyl]-5,6-dihydro-1,4,2-dioxazine] | 11
OC(Cc1ccccc1Cl)(Cn1nc[nH]c1=S)C1(Cl)CC1 (stereo not drawn) [(II) prothioconazole, prothioconazole] | 0
CC(C)(C)C(O)(CCc1ccc(Cl)cc1)Cn1cncn1 (stereo not drawn) [(III) tebucinazole, tebucinazole] | 22
